From patent US9670242B2, “Tetracyclic anthraquinone derivatives” (Tianjin Hemay Bio-Tech Co., Ltd, priority 2012, dated 2017)

Experiment: Solubility of the compound in water
Assay type: physicochemical

SMILES | solubility of the compound in water
CC(=O)O.CCN1CCN(C(=O)CCC(=O)OCC(=O)C2(O)Cc3c(O)c4c(c(O)c3C(O[C@H]3C[C@H](n5cccc5)[C@H](O)[C@H](C)O3)C2)C(=O)c2c(OC)cccc2C4=O)CC1 (stereo partly drawn) [Example 80, 10-((3′-(pyrrol-1-yl)-2′,3′,6′-trideoxy-alphal-l-lyxo-hexylpyranyl)oxy)-7,8,9,10-tetrahydro-6,8,11-trihydroxy-13-oxo-14-(4-(4-ethylpiperazin-1-yl)-4-oxo-butyrato)-1-methoxy-5,12-naphthalenedione acetate] | more than 11 mg/ml
CC(=O)O.COc1cccc2c1C(=O)c1c(O)c3c(c(O)c1C2=O)CC(O)(C(=O)COC(=O)CCC(=O)NCCc1ccncc1)CC3O[C@H]1C[C@H](n2cccc2)[C@H](O)[C@H](C)O1 (some centres unmarked) [Example 86] | more than 3 mg/ml
CC(=O)O.COc1cccc2c1C(=O)c1c(O)c3c(c(O)c1C2=O)CC(O)(C(=O)COC(=O)CCC(=O)NCCc1cccnc1)CC3O[C@H]1C[C@H](n2cccc2)[C@H](O)[C@H](C)O1 (some centres unmarked) [Example 85] | more than 11 mg/ml
CC(=O)O.COc1cccc2c1C(=O)c1c(O)c3c(c(O)c1C2=O)CC(O)(C(=O)COC(=O)CCC(=O)NCc1ccncc1)CC3O[C@H]1C[C@H](n2cccc2)[C@H](O)[C@H](C)O1 (some centres unmarked) [Example 82] | more than 6 mg/ml
CC(=O)O.COc1cccc2c1C(=O)c1c(O)c3c(c(O)c1C2=O)CC(O)(C(=O)COC(=O)CCC(=O)NCCCN1CCOCC1)CC3O[C@H]1C[C@H](n2cccc2)[C@H](O)[C@H](C)O1 (stereo partly drawn) [Example 78, 10-((3′-(pyrrol-1-yl)-2′,3′,6′-trideoxy-alphal-l-lyxo-hexylpyranyl)oxy)-7,8,9,10-tetrahydro-6,8,11-trihydroxy-13-oxo-14-(4-((3-(morpholin-1-yl)propyl)amino)-4-oxo-butyrato)-1-methoxy-5,12-naphthalenedione acetate] | more than 22 mg/ml
CC(=O)O.COc1cccc2c1C(=O)c1c(O)c3c(c(O)c1C2=O)CC(O)(C(=O)COC(=O)CCC(=O)NCc1cccnc1)CC3O[C@H]1C[C@H](n2cccc2)[C@H](O)[C@H](C)O1 (some centres unmarked) [Example 83] | more than 1 mg/ml
CC(=O)O.COc1cccc2c1C(=O)c1c(O)c3c(c(O)c1C2=O)CC(O)(C(=O)COC(=O)CCC(=O)NN1CCN(C)CC1)CC3O[C@H]1C[C@H](n2cccc2)[C@H](O)[C@H](C)O1 (some centres unmarked) [Example 79] | more than 5 mg/ml
CC(=O)O.COc1cccc2c1C(=O)c1c(O)c3c(c(O)c1C2=O)CC(O)(C(=O)COC(=O)CCC(=O)NCCc1ccccn1)CC3O[C@H]1C[C@H](n2cccc2)[C@H](O)[C@H](C)O1 (some centres unmarked) [Example 84] | more than 12 mg/ml
